Test results taken from publication PMC10587159, “Biosynthesis and engineering of the nonribosomal peptides with a C-terminal putrescine” (Nature Communications, 2023).
Entries after “also recorded” stand apart in the source; their conditions may differ. Residues, ends and D or L forms follow the SMILES beside them. *: point of attachment. Octanoyl = CCCCCCCC(=O)*; NH(CH2)4NH2 = NCCCCN*

How the values were obtained:
[1] = test system: human lung adenocarcinoma cell A549; assay: MTT cytotoxicity assay, A549; type: cell-based; settings: 24 h
How it was run: (§1)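 An MTT-based assay, run as in prior work, gives compound cytotoxicity here. The tested lines undergo routine authentication through morphology and gene/protein expression checks.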

[2] = test system: human breast adenocarcinoma cells MDA-MB-231; assay: cells; type: cell-based; settings: 24 h
How it was run: as §1

[3] = test system: human hepatoma cell HepG-2; assay: cells; type: cell-based; settings: 24 h
How it was run: (§2)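 MTT read-out of viability; cancer lines plus normal 2B epithelial cells. Lines authenticated by morphology, gene/protein expression.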

[4] = test system: human lung epithelial normal cell 2B; assay: cells; type: cell-based; settings: 24 h
How it was run: as §2

[5] = test system: human ovarian cancer cell line SKOV3; assay: cells; type: cell-based; settings: 24 h
How it was run: (§3)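 Cells were exposed to compounds and viability was then quantified by MTT assay, per an earlier published method. Panel included leukemia Kasumi, hepatoma HepG-2, gastric SGC-7901 and normal lung epithelial 2B cells.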

[6] = test system: tumor lines; assay: MTT cytotoxicity assay, statements on the whole panel; type: cell-based, human
How it was run: as §3

[7] = test system: RAW 264.7 cells; assay: NO production in LPS-induced RAW264.7 cells (Griess method), anti-inflammatory; type: cell-based; settings: compounds 0-80 μM for 30 min, then co-treatment with LPS 24 h; Griess reagents, OD 540 nm
Source text: The two human acute lymphoblastic leukemia cells K562 and Kasumi, two human breast adenocarcinoma cells MCF7 and MDA-MB-231, human hepatoma cell HepG-2, human lung adenocarcinoma cell A549, human gastric cancer cell SGC-7901, human colon cancer cell HCT-116, human ovarian cancer cell line SKOV3, or human lung epithelial normal cell 2B were obtained from Beyotime Biotechnology and utilized to test the cytotoxicity of compounds by MTT assays as previous study. The anti-inflammatory effect of the compounds was detected by the influence on the increase in the level of nitric oxide caused by lipopolysaccharide (LPS) based on the classic Griess method. RAW 264.7 cells (Shanghai Institutes for Biological Science) were seeded in 96-well plates and incubated for 24 h. Then, cells were treated with compounds 29, 29a, 31, and 31a (0-80 μM) for 30 min, followed by co-treatment with LPS ([…]) for another 24 h. The Nitric Oxide assay kit with Griess reagents (Beyotime, Lot: S0021, Shanghai, China) was used to examine cellular supernatant nitrite accumulation, which represents cellular NO levels. The OD value of 540 nm absorbance was detected with a microplate reader. […]
We measured NO production to test the anti-inflammatory activity of compounds […]
cellular NO levels. The OD value of 540 nm absorbance was detected with a microplate […]

CCCCCCCC(=O)N[C@H](C(=O)N[C@@H](Cc1ccccc1)C(=O)N[C@@H](CCC(=O)O)C(=O)N[C@H](C(=O)N[C@@H](C)C(=O)NCCCCN)[C@@H](C)CC)C(C)C [Compound 31] (Octanoyl-VFEIA-{NH(CH2)4NH2}; N-terminus assumed)
IC50 [1]: 198.3 ± 1.25 µM
IC50 [2]: 168.9 ± 1.05 µM
IC50 [3]: 136.2 ± 0.15 µM
IC50 [4]: 42.6 ± 1.25 µM
IC50 [5]: 241.4 ± 0.07 µM
IC50 ([6]; 24 h): > 40 µM
cytotoxic / antitumor activity in words ([6]; MTT assay, panel of tumor cell lines): higher anti-inflammatory and antitumor activities than 29a and 31a
anti-inflammatory activity (NO production in LPS-induced RAW264.7 cells) in words [7]: higher anti-inflammatory and antitumor activities than 29a and 31a; also recorded: moderate; also recorded: suppressed moderately the release
